Here are results for 14 compounds from ChEMBL document CHEMBL4673289, “Design, synthesis and biological evaluation of imidazolopyridone derivatives as novel BRD4 inhibitors” (Bioorg Med Chem, 2021).

The IC50 is the midpoint of a concentration-inhibition curve. Higher therefore signals a need for much substance. The inhibition is the change of the read-out against control, counted positive when it falls. A lower inhibition goes with a response near the control.

Each structure is given as a SMILES string. Activity calls are given as the source filed them. The rule behind the calls is not given here.

System in one data set: not listed separately
Kind of data set: Toxicity in BALB/c mouse allografted with mouse Panc02 cells assessed as effect on body weight at 100 mg/kg, ip administered every day measured after 19 days. Type of data set: organism-based. The conditions noted are these: in vivo, 456 h, time 19 day.
Regarding `Nc1ccn([C@@H]2O[C@H](CO)[C@@H](O)C2(F)F)c(=O)n1` [GEMCITABINE], the Activity entry is on record as “Non-Toxic”.

The target of a further data set is T1, Bromodomain-containing protein 4 (Homo sapiens, UniProt O60885). The data set is described as follows: Inhibition of BRD4 (unknown origin) preincubated for 15 mins followed by substrate addition and measured after 1 hr by AlphaScreen assay relative to control.
Conditions: not given
`CCS(=O)(=O)c1ccc(Oc2cc(-c3c(C)noc3C)ccc2C)c(-c2cn(C)c(=O)c3cncn23)c1` came in with an IC50 of 261 nM.
For the compound `Cc1sc2c(c1C)C(c1ccc(Cl)cc1)=N[C@@H](CC(=O)C(C)(C)C)c1nnc(C)n1-2`, the 50% inhibitory concentration (IC50) is 88 nM.
Same read-out and setting: to `CCS(=O)(=O)c1ccc(Oc2cccc(-c3c(C)noc3C)c2)c(-c2cn(C)c(=O)c3cncn23)c1` belongs 435 nM; to `CCS(=O)(=O)c1ccc(Oc2cc(-c3c(C)noc3C)ccc2F)c(-c2cn(C)c(=O)c3cncn23)c1`, 152 nM.
Still for that read-out and setting: to `CCS(=O)(=O)c1ccc(Oc2ccc(C)c(-c3c(C)noc3C)c2)c(-c2cn(C)c(=O)c3cncn23)c1` belongs 254 nM; to `CCS(=O)(=O)c1ccc(Oc2cc(-c3c(C)noc3C)ccc2OC)c(-c2cn(C)c(=O)c3cncn23)c1`, 56 nM.

A further data set concerns Panc02. Kind of data set: Antitumor activity against mouse Panc02 allografted in BALB/c mouse assessed as reduction in tumor weight at 100 mg/kg, ip administered every day for 20 days relative to control. Type of data set: functional. The conditions noted are these: 480 h, time 20 day, read-out: TGI.
On to `Nc1ccn([C@@H]2O[C@H](CO)[C@@H](O)C2(F)F)c(=O)n1` [GEMCITABINE], for which the inhibition in vivo at 100 mg/kg is 70%.

For the next data set, the system named is SMMC-7721. Kind of data set: Antiproliferative activity against human SMMC-7721 cells assessed as cell growth inhibition at 2 uM measured after 48 to 72 hrs by MTT assay relative to control. The class given is functional. The conditions noted are these: time 48-72 hrs, read-out: GI. On the technique in general: Formazan colour is commonly taken as a measure of viable cells.
Regarding `CCS(=O)(=O)c1ccc(Oc2cc(-c3c(C)noc3C)ccc2C)c(-c2cn(C)c(=O)c3cncn23)c1`, the inhibition of growth at 2 µM was 11.4%.
The same measure, in the same setting: the value for `Cc1sc2c(c1C)C(c1ccc(Cl)cc1)=N[C@@H](CC(=O)C(C)(C)C)c1nnc(C)n1-2` was 12.2%; that for `CCS(=O)(=O)c1ccc(Oc2cccc(-c3c(C)noc3C)c2)c(-c2cn(C)c(=O)c3cncn23)c1` was 18.2%.
Still for that read-out and setting: the value for `CCS(=O)(=O)c1ccc(Oc2cc(-c3c(C)noc3C)ccc2F)c(-c2cn(C)c(=O)c3cncn23)c1` was 21.3%; that for `CCS(=O)(=O)c1ccc(Oc2ccc(C)c(-c3c(C)noc3C)c2)c(-c2cn(C)c(=O)c3cncn23)c1` was 19.9%; that for `CCS(=O)(=O)c1ccc(Oc2cc(-c3c(C)noc3C)ccc2OC)c(-c2cn(C)c(=O)c3cncn23)c1` was 18.4%.

A further data set relates to Mus musculus. The data set is described as follows: Upregulation of caspase 3 in BALB/c mouse allografted with mouse Panc02 cells […] at 100 mg/kg, ip administered every day measured after 20 days by immunohistochemical analysis. The class given is functional, organism-based. The conditions noted are these: time 20.0 day.
`Nc1ccn([C@@H]2O[C@H](CO)[C@@H](O)C2(F)F)c(=O)n1` [GEMCITABINE]: the outcome was Active.

The target of the next data set is T1, Bromodomain-containing protein 4. Kind of data set: Inhibition of BRD4 (unknown origin) at 1 uM preincubated for 15 mins followed by substrate addition and measured after 1 hr by AlphaScreen assay relative to control. The conditions noted are these: time 75.0 min. (Bead proximity is the source of the signal in Alpha formats.)
`CCS(=O)(=O)c1ccc(Oc2cc(-c3c(C)noc3C)ccc2C)c(-c2cn(C)c(=O)c3cncn23)c1` came in with an inhibition of 95.2%.
The same measure, in the same setting: the value for `CCS(=O)(=O)c1ccc(Oc2ccc(F)c(-c3c(C)noc3C)c2)c(-c2cn(C)c(=O)c3cncn23)c1` was 78.1%; that for `Cc1sc2c(c1C)C(c1ccc(Cl)cc1)=N[C@@H](CC(=O)C(C)(C)C)c1nnc(C)n1-2` was 99.5%; that for `CCS(=O)(=O)c1ccc(Oc2cc(-c3c(C)noc3C)ccc2C#N)c(-c2cn(C)c(=O)c3cncn23)c1` was 31.2%.
The same measure, in the same setting: the value for `CCS(=O)(=O)c1ccc(Oc2cccc(-c3c(C)noc3C)c2)c(-c2cn(C)c(=O)c3cncn23)c1` was 93.2%; that for `Cc1noc(C)c1-c1cccc(Oc2ccc(S(C)(=O)=O)cc2-c2cn(C)c(=O)c3cncn23)c1` was 62.7%.
The same measure, in the same setting: to `CCS(=O)(=O)c1ccc(Oc2cc(-c3c(C)noc3C)ccc2F)c(-c2cn(C)c(=O)c3cncn23)c1` belongs 99.5%; to `CCS(=O)(=O)c1ccc(Oc2ccc(Cl)c(-c3c(C)noc3C)c2)c(-c2cn(C)c(=O)c3cncn23)c1`, 64.9%; to `CCS(=O)(=O)c1ccc(Oc2cccc(-c3c(C)noc3C)n2)c(-c2cn(C)c(=O)c3cncn23)c1`, 70.2%.
On to `CCS(=O)(=O)c1ccc(Oc2ccc(C)c(-c3c(C)noc3C)c2)c(-c2cn(C)c(=O)c3cncn23)c1`, for which the inhibition is 96.5%.
`CCS(=O)(=O)c1ccc(Oc2cc(-c3c(C)noc3C)ccc2Cl)c(-c2cn(C)c(=O)c3cncn23)c1`: the inhibition amounted to 86.3%.
For `CCS(=O)(=O)c1ccc(Oc2cc(-c3c(C)noc3C)ccc2OC)c(-c2cn(C)c(=O)c3cncn23)c1`, the inhibition amounted to 99.9%.
Same read-out and setting: to `CCS(=O)(=O)c1ccc(Oc2cc(F)c(F)c(F)c2)c(-c2cn(C)c(=O)c3cncn23)c1` belongs 40.1%.

A further data set has as its system Mus musculus. Kind of data set: Downregulation of Ki67 expression in BALB/c mouse allografted with mouse Panc02 cells […] at 100 mg/kg, ip administered every day measured after 20 days by immunohistochemical analysis. The class given is functional, organism-based. The conditions noted are these: time 20.0 day.
In the case of `Nc1ccn([C@@H]2O[C@H](CO)[C@@H](O)C2(F)F)c(=O)n1` [GEMCITABINE], the outcome was Active.

The test system of the next data set is BXPC-3. The data set is described as follows: Antiproliferative activity against human BXPC-3 cells assessed as cell growth inhibition at 2 uM measured after 48 to 72 hrs by MTT assay relative to control. Type of data set: functional. The conditions noted are these: time 48-72 hrs, read-out: GI.
Take `CCS(=O)(=O)c1ccc(Oc2cc(-c3c(C)noc3C)ccc2C)c(-c2cn(C)c(=O)c3cncn23)c1`: the inhibition of growth at 2 µM is 30.2%.
Same read-out and setting: to `Cc1sc2c(c1C)C(c1ccc(Cl)cc1)=N[C@@H](CC(=O)C(C)(C)C)c1nnc(C)n1-2` belongs 31.1%.
Still for that read-out and setting: to `CCS(=O)(=O)c1ccc(Oc2cccc(-c3c(C)noc3C)c2)c(-c2cn(C)c(=O)c3cncn23)c1` belongs 41.2%; to `CCS(=O)(=O)c1ccc(Oc2cc(-c3c(C)noc3C)ccc2F)c(-c2cn(C)c(=O)c3cncn23)c1`, 33.2%; to `CCS(=O)(=O)c1ccc(Oc2ccc(C)c(-c3c(C)noc3C)c2)c(-c2cn(C)c(=O)c3cncn23)c1`, 35.8%.
Same read-out and setting: the value for `CCS(=O)(=O)c1ccc(Oc2cc(-c3c(C)noc3C)ccc2OC)c(-c2cn(C)c(=O)c3cncn23)c1` was 42.2%.

Another data set has as its system PANC-1. Kind of data set: Antiproliferative activity against human PANC-1 cells assessed as cell growth inhibition at 2 uM measured after 48 to 72 hrs by MTT assay relative to control. Type of data set: functional. The following applies: time 48-72 hrs, read-out: GI.
Regarding `CCS(=O)(=O)c1ccc(Oc2cc(-c3c(C)noc3C)ccc2C)c(-c2cn(C)c(=O)c3cncn23)c1`, the inhibition of growth at 2 µM turned out to be 20.6%.
For `Cc1sc2c(c1C)C(c1ccc(Cl)cc1)=N[C@@H](CC(=O)C(C)(C)C)c1nnc(C)n1-2`, the inhibition of growth at 2 µM amounted to 17.1%.
Still for that read-out and setting: to `CCS(=O)(=O)c1ccc(Oc2cccc(-c3c(C)noc3C)c2)c(-c2cn(C)c(=O)c3cncn23)c1` belongs 21.6%; to `CCS(=O)(=O)c1ccc(Oc2cc(-c3c(C)noc3C)ccc2F)c(-c2cn(C)c(=O)c3cncn23)c1`, 19.6%.
On the same count and under the same terms, the value for `CCS(=O)(=O)c1ccc(Oc2ccc(C)c(-c3c(C)noc3C)c2)c(-c2cn(C)c(=O)c3cncn23)c1` was 23.7%.
Turning to `CCS(=O)(=O)c1ccc(Oc2cc(-c3c(C)noc3C)ccc2OC)c(-c2cn(C)c(=O)c3cncn23)c1`, the inhibition of growth at 2 µM was determined as 16.2%.
